For series [1], the system named is primary neurons. As to the kind of experiment: Effect of compounds on neuronal cell death caused by NSP5 (Example 6). To be noted: 10 μM, 48 hours. It is filed as cell-based, mouse.
The test system of series [2] is primary neurons expressing SARS-CoV-2 NSP5 (AAV9-NSP5-V5). As to the kind of experiment: Effect on neurons in the presence of NSP5 (AAV9-NSP5-V5, immunofluorescence). It is filed as cell-based, mouse. To be noted: 0.4, 2, 10 or 50 μM, two days.
The test system of series [3] is primary neurons. In words: Neuronal cell death in the presence of NMDA. It counts as cell-based, mouse. To be noted: 1 or 10 μM compound, 100 μM NMDA. How it is done:
(§1) Primary neurons were treated with 0.4, 1, 2, 10 or 50 μM of compound 2 or compound 22 (prepared according to Example 2). NSP5 was added to primary neurons at DIV11, and compound 2 or 22 was added 48 hours later. Cells were treated with propidium iodide 48 hours after compound addition. Cells were washed with PBS and fixed with 4% PFA. Cells were then washed and stained with DAPI. Images of cells were taken with ZEISS Axioscan 7 microscope slide scanner. Cell death was determined by Image J analysis, counting the death cell (red, PI)) vs all cells (blue, DAPI).
(§2) One hour after compound addition (1 or 10 μM of compound 2 or compound 22) neurons were treated with a cytotoxic agent (100 μM N-methyl-D-aspartate (NMDA), 100 μM H2O2 or 5 μM staurosporine). One hour after treatment with the cytotoxic agent, the media was replaced with fresh media and the neurons were incubated for 24 hours. A final concentration of 1 μM propidium iodide (PI) was added into the well and incubated for 5 mins. Cells were washed with phosphate-buffered saline (PBS) and then fixed with 4% PFA. Cells were then washed and stained with DAPI, and cell death determined as described above.

In series [4] the test system is primary neurons. As to the kind of experiment: Neuronal cell death in the presence of H2O2. The conditions noted are these: 1 or 10 μM compound, 100 μM H2O2. It counts as cell-based, mouse. How it is done: as §1, §2
Series [5] deals with primary neurons. As to the kind of experiment: Neuronal cell death in the presence of staurosporine. The conditions noted are these: 1 or 10 μM compound, 5 μM staurosporine. It is filed as cell-based, mouse. How it is done:
as §1, §2

The test system of series [6] is primary neurons. In words: Cytotoxicity / neuronal cell death in the presence of NSP5 (PI/DAPI).

Each structure is given as a SMILES string.

Turning to `NC(=O)C1CCN(c2ncccc2CNC(=O)c2cc(F)cc(C(F)(F)F)c2)CC1` [Compound 35], the “Reduction of neuronal cell death caused by NSP5” value in the series with primary neurons [1] is “greatest activity”.

Take `NC(=O)C1CCN(c2ncccc2CNC(=O)c2cccc3ccsc23)CC1` [Compound 2]: the “Prevention of NSP5-induced neuronal death” value in series [2] is “prevented NSP5-induced neuronal death in a dose-dependent manner”. Also, the “Protection from NMDA-induced neurotoxicity” value with primary neurons [3] is “did not protect”. Also, the “Protection from H2O2-induced neurotoxicity” value with primary neurons [4] is “did not protect”. Besides, the “Protection from staurosporine-induced neurotoxicity” value with primary neurons [5] was “did not protect”. In addition, in the series on primary neurons [6] (0.4, 1, 2, 10 or 50 μM, 48 hours), the “Reduction of neuronal cell death caused by NSP5” value was “selectively reduced neuronal cell death caused by NSP5”. In addition, in the series on primary neurons [6] (therapeutic concentrations (nM to low μM)), the “Cell death caused by compound” value was “did not cause any cell death”.

These data come from patent US20260355171A1, “INHIBITORS AND USES THEREFOR” (priority 2022, published 2026).
